Test results reported in patent US6319898A, “Method for inhibiting eukaryotic protein kinases” (Terragen Diversity, Inc., priority 1998, dated 2001).
Residues, ends and D or L forms follow the SMILES beside them.

Legend:
Streptomyces 85E = assay: Inhibition of sporulation of Streptomyces 85E, filter paper disc on seeded plate; format: cell-based, Streptomyces WEC478-85E; settings: surfactin in these concentrations (1 to 10 ug on the disc)
Experimental: In the test assay, material to be tested was applied to a filter paper disk and then placed on a plate which has been freshly seeded with the strain […] test organism. The test organism is then allowed to grow in the presence of the filter paper disk for a period of 24 to 36 hours, after which the organism is evaluated for altered development in the zone around the disk. An observation of an inhibition of the formation of aerial mycelia and spores, without inhibition of the growth of vegetative mycelia is particularly indicative of the presence of an inhibitor of post-translational phosphorylation. Samples of surfactin prepared as described from Bacillus 60A as well as surfactin from Bacillus subtilis with the same molecular weight (1036) obtained from Sigma were tested for their ability to inhibit sporulation of Streptomyces […].

Human c-Src (p60^c-src) = biological target: T1, Human c-Src (p60^c-src) (Homo sapiens, UniProt P12931); assay: c-Src tyrosine kinase ELISA based assay (Pierce), absorbance at 450 nm; format: biochemical
T1 construct: purchased Upstate Biotechnology
T1 sequence (P12931 whole entry): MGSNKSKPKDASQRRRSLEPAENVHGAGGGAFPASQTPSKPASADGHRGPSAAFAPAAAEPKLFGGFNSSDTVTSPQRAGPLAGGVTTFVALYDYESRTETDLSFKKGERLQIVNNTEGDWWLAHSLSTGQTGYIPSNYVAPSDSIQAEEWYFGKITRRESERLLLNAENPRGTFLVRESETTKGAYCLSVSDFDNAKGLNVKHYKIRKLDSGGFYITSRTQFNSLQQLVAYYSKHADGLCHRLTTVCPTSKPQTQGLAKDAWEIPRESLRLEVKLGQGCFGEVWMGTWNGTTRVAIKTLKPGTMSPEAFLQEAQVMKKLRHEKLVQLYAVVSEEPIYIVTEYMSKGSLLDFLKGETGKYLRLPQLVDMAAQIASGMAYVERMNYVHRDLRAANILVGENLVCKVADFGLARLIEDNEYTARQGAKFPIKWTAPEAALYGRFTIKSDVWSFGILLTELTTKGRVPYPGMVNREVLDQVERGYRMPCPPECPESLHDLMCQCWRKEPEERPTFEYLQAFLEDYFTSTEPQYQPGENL
Experimental: Human c-Src (p60^c-src) was obtained from Upstate Biotechnology. The activity of the enzyme was assayed in an ELISA based assay developed by Pierce. Following their protocol, 500 ng of a biotinylated peptide substrate in distilled water (Pierce biotinylated peptide substrate #2, sequence Biotin-EGPWLEEEEEAYGWMDF) (SEQ ID NO:2) was added to a NeutrAvidin™ coated well, incubated at 37° C. for 30 minutes to allow binding to the well then washed with Tris-buffered saline (TBS, 25 mM Tris, 0.15 M NaCl, pH 7.6). For each reaction, a reaction buffer mixture was prepared to contain 10 ul of src assay buffer (100 mM Tris-HCl, pH 7.2, 25 mM MnCl2, 2.0 mM EGTA, 0.25 mM Na3 VO4, 125 mM Mg Acetate) 20 ul of ATP/MgCl2 buffer (5 mM ATP, 50 MM MgCl2 in TBS) and 1 ul of protease inhibitor mix (PMSF and pepstatin, final concentrations in Rx: 0.5 mM and 1.5 uM). The src enzyme is supplied at a concentration of 3 units per microliter and dilutions of the kinase were prepared in 1% bovine serum albumin (BSA) in TBS typically to final concentrations of 0.2 or 0.4 units in 10 ul. 10 ul of a solution of a compound to be tested for inhibitory activity was added to the reaction buffer mixture and allowed to stand 10-15 min. at room temperature, then 10 ul of the diluted kinase enzyme was added and the mixture was allowed to stand 10 min. at room temperature before addition to the substrate coated well. The plate was incubated at 30° C. for varying periods of time then the contents were washed out with repeated rinsings with TBS. A mouse monoclonal anti-phosphotyrosine antibody (PY20) conjugated to horseradish peroxidase (Pierce) was diluted 1:2000 in 1% BSA diluent from 1 mg/ml and 75 ul of this dilution was added to each well, incubated 1 hour at 37° C. then washed out with repeated rinsings with TBS.
100 ul of horseradish peroxidase substrate solution (3,3',5,5' tetramethylbenzidine and H2 O2, Pierce TMB-ELISA) was added to each well and after 10 min. the reaction was stopped with the addition of 100 ul of 1 N H2 SO4. Absorbance was read at 450 nm in a Molecular Devices V-max plate reader.
Examples of inhibition detected using this assay: (Values reported are the absorbance readings after subtraction of a blank well containing no enzyme.)

[1] = test system: Protein Kinase C purified from rat brain; assay: Protein Kinase C colorimetric assay (Pierce), absorbance at 570 nm; format: biochemical; settings: for absorbance read at 570 nm: 10 ng PKC + 10 ug, 30 min at 30° C, control reaction 0.228 (srf), 0.203 (polymyxin B)
Experimental: Protein Kinase C purified from rat brain was obtained from Upstate Biotechnology. The activity of the enzyme was assayed in a colorimetric assay developed by Pierce. Reaction mixtures were prepared to contain 5 ul each of the 5×reaction buffer, the dye labeled glycogen synthase synthetic peptide substrate reconstituted to 1.77 mM and the 5× activator solution of phosphatidyl-L-serine, all supplied by Pierce in a PKC assay kit. The activator solution was sonicated for 30 sec. on ice prior to use. 1 ul of the kinase (equivalent to 10 ng of enzyme with a specific activity of 12.1 units/mg) was added to 10 ul of a solution containing the compound to be tested for inhibitory activity and allowed to stand at room temperature for 10 minutes then transferred to the reaction tube containing the substrate and incubated 30 min. at 30° C. After incubation 20 ul of each sample was applied to the centre of the affinity membrane in the separation units supplied with the assay kit. These membranes specifically bind the phosphorylated dye labeled substrate while non-phosphorylated peptide will pass through when spun at low speeds. After washing the membranes the phosphorylated peptide was eluted by spinning with the elution buffer and absorbance read at 570 nm in a Molecular Devices V-max plate reader.

E. coli = assay: Growth inhibition of E. coli; format: cell-based; settings: surfactin in these concentrations (1 to 10 ug on the disc)
Excerpt: (§1) Eventually the inhibition is overcome and the culture sporulates.

S. aureus = assay: Growth inhibition of S. aureus; format: cell-based; settings: surfactin in these concentrations (1 to 10 ug on the disc)
Excerpt: as §1

Compound	inhibition of growth of the vegetative mycelia (Streptomyces 85E)	persistence of the inhibition of aerial mycelia and spore formation after unaffected portions of the culture have sporulated (Streptomyces 85E)	inhibition of the activity of the tyrosine kinase (Human c-Src (p60^c-src); 100 uM in the reaction)	inhibition of the activity of the tyrosine kinase (Human c-Src (p60^c-src); 200 uM in the reaction (10 ug))	absorbance reading after subtraction of a blank well containing no enzyme (Human c-Src (p60^c-src); 0.05 unit c-Src + 10 ug, 30 min at 30° C, control reaction 0.315)	absorbance reading after subtraction of a blank well containing no enzyme (Human c-Src (p60^c-src); 0.1 unit c-Src + 10 ug, 30 min at 30° C, control reaction 0.391)	absorbance reading after subtraction of a blank well containing no enzyme (Human c-Src (p60^c-src); 0.2 unit c-Src + 5 ug, 5 min at 30° C, control 0.220)	absorbance reading after subtraction of a blank well containing no enzyme (Human c-Src (p60^c-src); 0.2 unit c-Src + 10 ug, 5 min at 30° C, control 0.220)	absorbance reading after subtraction of a blank well containing no enzyme (Human c-Src (p60^c-src); 0.2 unit c-Src + 10 ug, 30 min at 30° C, control reaction 0.396)	absorbance reading after subtraction of a blank well containing no enzyme (Human c-Src (p60^c-src); 0.4 unit c-Src + 10 ug, 30 min at 30° C, control reaction 0.517)	potency against the tyrosine kinase c-Src compared with the serine-threonine kinase PKC (Human c-Src (p60^c-src); conclusion from the c-Src and PKC assays)	absorbance read at 570 nm [1]	inhibition of Protein Kinase C ([1]; 380 uM in the reaction)	inhibition of growth of E. coli (E. coli)	inhibition of growth of S. aureus (S. aureus)
CC(C)CCCCCCCCC[C@@H]1CC(=O)N[C@@H](CCC(=O)O)C(=O)N[C@@H](CC(C)C)C(=O)N[C@H](CC(C)C)C(=O)N[C@@H](C(C)C)C(=O)N[C@@H](CC(=O)O)C(=O)N[C@H](CC(C)C)C(=O)N[C@@H](CC(C)C)C(=O)O1 [surfactin] (HELM PEPTIDE1{E.L.[dL].V.D.[dL].L}|CHEM1{[CC(C)CCCCCCCCC[C@H](CC(=O)[*:1])O[*:2]]}$PEPTIDE1,CHEM1,1:R1-1:R1|PEPTIDE1,CHEM1,7:R2-1:R2$$$V2.0)	does not inhibit growth of the vegetative mycelia	3 to 4 days	has inhibited the activity of the tyrosine kinase tested	has inhibited the activity of the tyrosine kinase tested	0.050	0.093	0.185	0.087	0.191	0.311	more potent inhibitors of the tyrosine kinase tested than this serine-threonine kinase	0.181	only minimally inhibitory	does not inhibit growth	does not inhibit growth
Polymyxin B [reference compound]												0.035			
